Our source for the EC50 values is patent publication US20260285846A1, “REV-ERB AGONISTS FOR TH17-MEDIATED INFLAMMATORY DISORDERS” (UNIVERSITY OF FLORID RESEARCH FOUNDATION, iNCORPORATED, priority 2021, published 2026).

Chain of REV-ERBα LBD (P20393 with tags, fused parts or gaps DEL324-422): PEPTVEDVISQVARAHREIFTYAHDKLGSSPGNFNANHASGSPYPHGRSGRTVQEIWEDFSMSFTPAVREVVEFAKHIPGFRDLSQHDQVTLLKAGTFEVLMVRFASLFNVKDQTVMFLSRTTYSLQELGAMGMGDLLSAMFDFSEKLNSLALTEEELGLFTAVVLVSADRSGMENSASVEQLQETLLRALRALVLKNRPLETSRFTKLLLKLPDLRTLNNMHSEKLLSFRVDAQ
Chain of REV-ERBα LBD (Q9Y618 2335-2356 partner limits assumed): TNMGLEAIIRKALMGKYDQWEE

The experiment addresses REV-ERBα LBD (Homo sapiens, UniProt P20393, DEL324-422). Nature of the experiment: biochemical. To be noted: FRET assay; 6xHistag-REV-ERBα LBD with FITC-labeled SMRT corepressor peptide; read-out: REVERBα (Agonism of REV-ERBα, EC50). The method, then: TR-FRET corepressor interaction assay. The time-resolved fluorescence resonance energy transfer (TR-FRET) assay was performed in black low-volume 384-well plates (Greiner). Each well contained 4 nM 6×Histag-REV-ERBα LBD (human; residues 281-614 A324-422) or 6×Histag-REV-ERBα LBD (human; residues 381-579) protein expressed in and purified from Escherichia coli using nickel affinity and size exclusion chromatography; 1 nM LanthaScreen Elite Tb-anti-HIS Antibody (Thermo Fisher Scientific); and 400 nM FITC-labeled peptide derived from the SMRT corepressor ([…]) containing a N-terminal FITC label with a six-carbon linker (Ahx) and an amidated C-terminus for stability (synthesized by LifeTein) in TR-FRET buffer (20 mM potassium phosphate, pH 7.4, 50 mM potassium chloride, 1 mM dithiothreitol, and 0.005% Tween-20). Ligand stocks were prepared via serial dilution in DMSO, added to wells in triplicate, and plates were incubated at 4° C. for 2 h and read using a BioTek Synergy Neo multimode plate reader. The Tb donor was excited at 340 nm; its fluorescence emission was monitored at 495 nm, and the acceptor FITC emission was measured at 520 nm; and the TR-FRET ratio was calculated as the signal at 520 nm divided by the signal at 495 nm. Data were plotted using GraphPad Prism as TR-FRET ratio vs. ligand concentration and fit to sigmoidal dose response curve equation.
Exemplary compounds of the present disclosure were assayed as described above to assess agonism of REV-ERBα. Results of the FRET assay are shown in Table 2 below (A: EC50<100 nM; B: EC50 100 nM-1000 nM; C: EC50>1000 nM; NT: not tested).
`CC(NS(=O)(=O)C1CC1)c1cn(CC(C)(C)C)c2cc(-c3ncccc3Cl)c(F)cc12` (stereo not drawn) [Compound 58, N-[1-[6-(3-chloro-2-pyridyl)-1-(2,2-dimethylpropyl)-5-fluoro-indol-3-yl]ethyl]cyclopropanesulfonamide]: the EC50 – broadly, the midpoint of the concentration-response curve – was less than 100 nM.

Turning to `CC(NS(=O)(=O)C1CC1)c1cn(CC(C)(C)C)c2cc(-c3ncccc3F)c(F)cc12` (stereo not drawn) [Compound 59, N-[1-[1-(2,2-dimethylpropyl)-5-fluoro-6-(3-fluoro-2-pyridyl)indol-3-yl]ethyl]cyclopropanesulfonamide], the EC50 was less than 100 nM.

With `CC(NS(=O)(=O)C1CC1)c1cn(CC(C)(C)C)c2cc(-c3ncccc3C3CC3)c(F)cc12` (stereo not drawn) [Compound 60, N-(1-(6-(3-cyclopropylpyridin-2-yl)-5-fluoro-1-neopentyl-1H-indol-3-yl)ethyl)cyclopropanesulfonamide], the EC50 was less than 100 nM. With `CC(NS(=O)(=O)C1CC1)c1cn(CC(C)(C)C)c2cc(-c3ncccc3OC(F)F)c(F)cc12` (stereo not drawn) [Compound 61, N-(1-(6-(3-(difluoromethoxy)pyridin-2-yl)-5-fluoro-1-neopentyl-1H-indol-3-yl)ethyl)cyclopropanesulfonamide], the EC50 was less than 100 nM.

On to `CC(NS(=O)(=O)C1CC1)c1cn(CC(C)(C)C)c2cc(-c3ncc(F)cc3Cl)c(F)cc12` (stereo not drawn) [Compound 62, N-(1-(6-(3-chloro-5-fluoropyridin-2-yl)-5-fluoro-1-neopentyl-1H-indol-3-yl)ethyl)cyclopropanesulfonamide], for which the EC50 is less than 100 nM. The figure for `CC(NS(=O)(=O)C1CC1)c1cn(CC(C)(C)C)c2cc(-c3ncc(F)cc3C#N)c(F)cc12` (stereo not drawn) [Compound 63, N-(1-(6-(3-cyano-5-fluoropyridin-2-yl)-5-fluoro-1-neopentyl-1H-indol-3-yl)ethyl)cyclopropanesulfonamide] is less than 100 nM; for `CC(NS(=O)(=O)C1CC1)c1cn(CC(C)(C)C)c2cc(-c3ccc(F)cn3)c(F)cc12` (stereo not drawn) [Compound 64, N-(1-(5-fluoro-6-(5-fluoropyridin-2-yl)-1-neopentyl-1H-indol-3-yl)ethyl)cyclopropanesulfonamide] it is 100 to 1000 nM; for `CC(NS(=O)(=O)C1CC1)c1cn(CC(C)(C)C)c2cc(-c3cccnc3C(F)F)c(F)cc12` (stereo not drawn) [Compound 65, N-(1-(6-(2-(difluoromethyl)pyridin-3-yl)-5-fluoro-1-neopentyl-1H-indol-3-yl)ethyl)cyclopropanesulfonamide] it is less than 100 nM. In the case of `Cc1ncc(F)cc1-c1cc2c(cc1F)c(C(C)NS(=O)(=O)C1CC1)cn2CC(C)(C)C` (stereo not drawn) [Compound 66, N-(1-(5-fluoro-6-(5-fluoro-2-methylpyridin-3-yl)-1-neopentyl-1H-indol-3-yl)ethyl)cyclopropanesulfonamide] it was less than 100 nM; in that of `CC(NS(=O)(=O)C1CC1)c1cn(CC(C)(C)C)c2cc(-c3cc(F)cnc3C#N)c(F)cc12` (stereo not drawn) [Compound 67, N-(1-(6-(2-cyano-5-fluoropyridin-3-yl)-5-fluoro-1-neopentyl-1H-indol-3-yl)ethyl)cyclopropanesulfonamide], less than 100 nM; in that of `CC(NS(=O)(=O)C1CC1)c1cn(CC(C)(C)C)c2cc(-c3cncc(F)c3)c(F)cc12` (stereo not drawn) [Compound 68, N-(1-(5-fluoro-6-(5-fluoropyridin-3-yl)-1-neopentyl-1H-indol-3-yl)ethyl)cyclopropanesulfonamide], 100 to 1000 nM. On to `CC(NS(=O)(=O)C1CC1)c1cn(CC(C)(C)C)c2cc(-c3ccc(C#N)nc3)c(F)cc12` (stereo not drawn) [Compound 69, N-(1-(6-(6-cyanopyridin-3-yl)-5-fluoro-1-neopentyl-1H-indol-3-yl)ethyl)cyclopropanesulfonamide], for which the EC50 is 100 to 1000 nM. The figure for `CC(NS(=O)(=O)C1CC1)c1cn(CC(C)(C)C)c2cc(-c3ccc(C(F)(F)F)nc3)c(F)cc12` (stereo not drawn) [Compound 70, N-(1-(5-fluoro-1-neopentyl-6-(6-(trifluoromethyl)pyridin-3-yl)-1H-indol-3-yl)ethyl)cyclopropanesulfonamide] is 100 to 1000 nM; for `Cc1ccncc1-c1cc2c(cc1F)c(C(C)NS(=O)(=O)C1CC1)cn2CC(C)(C)C` (stereo not drawn) [Compound 71, N-(1-(5-fluoro-6-(4-methylpyridin-3-yl)-1-neopentyl-1H-indol-3-yl)ethyl)cyclopropanesulfonamide] it is less than 100 nM; for `CC(NS(=O)(=O)C1CC1)c1cn(CC(C)(C)C)c2cc(-c3cnccc3F)c(F)cc12` (stereo not drawn) [Compound 72, N-(1-(5-fluoro-6-(4-fluoropyridin-3-yl)-1-neopentyl-1H-indol-3-yl)ethyl)cyclopropanesulfonamide] it is 100 to 1000 nM.

In the case of `CC(NS(=O)(=O)C1CC1)c1cn(CC(C)(C)C)c2cc(-c3cnccc3Cl)c(F)cc12` (stereo not drawn) [Compound 73, N-[1-[6-(4-chloro-3-pyridyl)-1-(2,2-dimethylpropyl)-5-fluoro-indol-3-yl]ethyl]cyclopropanesulfonamide], the half-maximal effective concentration (EC50) is less than 100 nM.

Regarding `CN(C)S(=O)(=O)N[C@@H](c1cn(CC(C)(C)C)c2cc(-c3ncc(F)cc3C(F)(F)F)ccc12)C(F)F` [Compound 74], the concentration for a half-maximal effect (EC50) is less than 100 nM. In the case of `CN(C)S(=O)(=O)N[C@@H](c1cn(CC(C)(C)C)c2cc(-c3c(C#N)cccc3C(F)(F)F)ccc12)C(F)F` [Compound 75] it was less than 100 nM; in that of `CC(C)(C)Cn1cc([C@H](NS(=O)(=O)N2CC(F)C2)C(F)F)c2cc(F)c(-c3ccccc3C(F)(F)F)cc21` [Compound 76, (S)—N-(2,2-difluoro-1-(5-fluoro-1-neopentyl-6-(2-(trifluoromethyl)phenyl)-1H-indol-3-yl)ethyl)-3-fluoroazetidine-1-sulfonamide], less than 100 nM; in that of `CC(C)(C)Cn1cc([C@H](NS(=O)(=O)C2CC2)C(F)F)c2ccc(-c3ncc(Cl)cc3F)cc21` [Compound 77, (S)—N-(1-(6-(5-chloro-3-fluoropyridin-2-yl)-1-neopentyl-1H-indol-3-yl)-2,2-difluoroethyl)cyclopropanesulfonamide], less than 100 nM. In the case of `CC(C)(C)Cn1cc([C@H](NS(=O)(=O)C2CC2)C(F)F)c2ccc(-c3ncc(F)cc3Cl)cc21` [Compound 78, (S)—N-(1-(6-(3-chloro-5-fluoropyridin-2-yl)-1-neopentyl-1H-indol-3-yl)-2,2-difluoroethyl)cyclopropanesulfonamide] it was less than 100 nM. In the case of `CC(C)(C)Cn1cc([C@H](NS(=O)(=O)C2CC2)C(F)F)c2ccc(-c3cnccc3C(F)(F)F)cc21` [Compound 79, (S)—N-(2,2-difluoro-1-(1-neopentyl-6-(4-(trifluoromethyl)pyridin-3-yl)-1H-indol-3-yl)ethyl)cyclopropanesulfonamide] it was less than 100 nM; in that of `CC(C)(C)Cn1cc([C@H](NS(=O)(=O)C2CC2)C(F)F)c2ccc(-c3cncnc3C(F)(F)F)cc21` [Compound 80, (S)—N-(2,2-difluoro-1-(1-neopentyl-6-(4-(trifluoromethyl)pyrimidin-5-yl)-1H-indol-3-yl)ethyl)cyclopropanesulfonamide], less than 100 nM.

Turning to `CC(C)(C)Cn1cc([C@H](NS(=O)(=O)C2CC2)C(F)F)c2ccc(-c3ccccc3C(F)F)cc21` [Compound 81, (S)—N-(1-(6-(2-(difluoromethyl)phenyl)-1-neopentyl-1H-indol-3-yl)-2,2-difluoroethyl)cyclopropanesulfonamide], the 50% effective concentration (EC50) is less than 100 nM.
